In the PolyMetriX glass transition set one finds glass transition temperature data, which are given here for 78 compounds.

In the case of `*/C(C)=C(/*)SCCCCCC` (repeat unit), the glass transition temperature came out at 110.00 °C.

The compound `*=Nc1cccc(/N=C(/C=C/C(=*)c2ccccc2)c2ccccc2)c1` (repeat unit) yielded a glass transition temperature of 178.00 °C.

The compound `*C#CC#Cc1cc(C(C)(C)C)cc2c3cc(C(C)(C)C)cc(*)c3n(CCCCCCCCCCCCCCCC)c12` (repeat unit) gave a glass transition temperature of 67.00 °C.

`*CC(*)(C)C(=O)Oc1ccc(C(=O)c2ccccc2)cc1` (repeat unit) returned a glass transition temperature of 118.00 °C.

As for `*CC(*)(C)C(=O)Oc1ccc(CC#N)cc1` (repeat unit), the glass transition temperature was 131.00 °C.

Regarding `*CC(*)(C)C(=O)Oc1ccc([N+](=O)[O-])c(C)c1` (repeat unit), the glass transition temperature was determined as 101.00 °C.

For `*CC(*)(C)C(=O)Oc1ccc2c(c1)CCC2` (repeat unit), the glass transition temperature worked out at 113.50 °C.

`*CC(*)(C)c1ccc2ccccc2c1` (repeat unit) displayed a glass transition temperature of 208.00 °C.

The compound `*CC(*)(CC(=O)OC(C)C)C(=O)OC(C)C` (repeat unit) showed a glass transition temperature of 100.00 °C.

Turning to `*CC(*)(CC(=O)OC)C(=O)OC` (repeat unit), the glass transition temperature came out at 95.00 °C.

`*CC(*)(CC(=O)OC)C(=O)OC12CC3CC(CC(C3)C1)C2` (repeat unit) displayed a glass transition temperature of 197.00 °C.

In turn, `*CC(*)(CC(=O)OC1CCC1)C(=O)OC1CCC1` (repeat unit) displayed a glass transition temperature of 60.00 °C.

Turning to `*CC(*)(CC(=O)OCC1CCCCC1)C(=O)OCC1CCCCC1` (repeat unit), the glass transition temperature stood at 83.00 °C.

Regarding `*CC(*)(CC(=O)OCCC1CCCCC1)C(=O)OCCC1CCCCC1` (repeat unit), the glass transition temperature came out at 48.00 °C.

`*CC(*)(CC(=O)OCCCC)C(=O)OCCCC` (repeat unit) returned a glass transition temperature of 24.00 °C.

The compound `*CC(*)(CC(=O)OCCCC1CCCCC1)C(=O)OCCCC1CCCCC1` (repeat unit) came in with a glass transition temperature of 7.00 °C.

With `*CC(*)(CC(=O)OCCCCCC)C(=O)OCCCCCC` (repeat unit), the glass transition temperature is -7.00 °C.

Consider `*CC(*)(CC(=O)OCCCc1ccccc1)C(=O)OCCCc1ccccc1` (repeat unit), for which the glass transition temperature is -8.00 °C.

On to `*CC(*)(CC(=O)OCCCl)C(=O)OCCCl` (repeat unit), for which the glass transition temperature stood at 43.00 °C.

With `*CC(*)(CC(=O)OCCOCCOC)C(=O)OCCOCCOC` (repeat unit), the glass transition temperature was -40.50 °C.

`*CC(*)(CC(=O)OCc1ccccc1)C(=O)OCc1ccccc1` (repeat unit) had a glass transition temperature of 55.00 °C.

With `*CC(*)(CC(=O)Oc1ccc(OCCC)cc1)C(=O)Oc1ccc(OCCC)cc1` (repeat unit), the glass transition temperature came to 94.50 °C.

On to `*CC(*)(CC)C(=O)OCC` (repeat unit), for which the glass transition temperature was found to be 27.00 °C.

For `*CC(*)(CCC)C(=O)OC` (repeat unit), the glass transition temperature worked out at 83.50 °C.

The compound `*CC(*)(CCCCCCCC)C(=O)OC` (repeat unit) came in with a glass transition temperature of 34.00 °C.

Consider `*CC(*)(Cl)C(=O)OCCC(F)(F)C(F)(F)C(F)(F)C(F)(F)C(F)(F)C(F)(F)C(F)(F)C(F)(F)F` (repeat unit), for which the glass transition temperature came out at 61.00 °C.

`*CC(*)(Cl)C(=O)OCCCC` (repeat unit) gave a glass transition temperature of 42.00 °C.

Consider `*CC(*)(F)C(=O)OC(C(F)(F)F)C(F)(F)F` (repeat unit), for which the glass transition temperature was 102.00 °C.

Take `*CC(*)(F)C(=O)OCC` (repeat unit): the glass transition temperature was determined as 94.00 °C.

In turn, `*CC(*)(F)C(=O)OCC(Cl)(Cl)Cl` (repeat unit) yielded a glass transition temperature of 127.00 °C.

Take `*CC(*)(F)C(=O)OCC(F)(F)C(F)(F)C(F)(F)F` (repeat unit): the glass transition temperature is 75.00 °C.

The compound `*CC(*)(F)C(=O)OCC(F)(F)F` (repeat unit) had a glass transition temperature of 124.00 °C.

`*CC(*)(F)C(=O)OCCC` (repeat unit) yielded a glass transition temperature of 62.00 °C.

`*CC(*)(F)C(=O)OCCC(F)(F)C(F)(F)C(F)(F)C(F)(F)C(F)(F)C(F)(F)C(F)(F)C(F)(F)F` (repeat unit) gave a glass transition temperature of 87.50 °C.

Turning to `*CC(*)(F)C(=O)OCCC(F)(F)C(F)(F)C(F)(F)C(F)(F)C(F)(F)C(F)(F)F` (repeat unit), the glass transition temperature turned out to be 53.00 °C.

With `*CC(*)(F)C(C)=O` (repeat unit), the glass transition temperature turned out to be 142.00 °C.

In turn, `*CC(*)C(=O)NC` (repeat unit) came in with a glass transition temperature of 171.00 °C.

`*CC(*)C(=O)NC(C)(C)CC(C)=O` (repeat unit) yielded a glass transition temperature of 72.50 °C.

With `*CC(*)C(=O)NCP(=O)(O)O` (repeat unit), the glass transition temperature was 26.00 °C.

On to `*CC(*)C(=O)Nc1ccc(C(=O)/C=C/c2cccc(Br)c2)cc1` (repeat unit), for which the glass transition temperature amounted to 55.00 °C.

`*CC(*)C(=O)Nc1ccc(Cl)cc1` (repeat unit) returned a glass transition temperature of 76.00 °C.

`*CC(*)C(=O)Nc1cccc(Cl)c1` (repeat unit) registered a glass transition temperature of 70.00 °C.

Turning to `*CC(*)C(=O)OC(F)(C(F)(F)F)C(F)(F)F` (repeat unit), the glass transition temperature came to 10.00 °C.

Compound `*CC(*)C(=O)OC(F)(F)C(F)(F)C(F)(F)C(F)(F)C(F)(F)C(F)(F)C(F)(F)C(F)(F)F` (repeat unit) had a glass transition temperature of 9.00 °C.

`*CC(*)C(=O)OC([2H])([2H])[2H]` (repeat unit) yielded a glass transition temperature of 35.00 °C.

`*CC(*)C(=O)OC1CC2CCC1(C)C2(C)C` (repeat unit) came in with a glass transition temperature of 100.00 °C.

`*CC(*)C(=O)OCC(C)(C)C` (repeat unit) came in with a glass transition temperature of 22.00 °C.

For the compound `*CC(*)C(=O)OCC(COC(=O)c1ccccc1)(COC(=O)c1ccccc1)COC(=O)c1ccccc1` (repeat unit), the glass transition temperature is 48.00 °C.

As to `*CC(*)C(=O)OCC(F)(F)C(F)(F)C(F)(F)C(F)(F)C(F)(F)C(F)(F)C(F)(F)F` (repeat unit), the glass transition temperature was -17.00 °C.

Turning to `*CC(*)C(=O)OCC(F)(F)C(F)(F)F` (repeat unit), the glass transition temperature is -26.00 °C.

In turn, `*CC(*)C(=O)OCC(F)(F)C(F)(F)OC(F)(F)C(F)(F)C(F)(F)F` (repeat unit) had a glass transition temperature of -68.00 °C.

Consider `*CC(*)C(=O)OCCCCCC(=O)Oc1ccc(-c2ccc(C#N)cc2)cc1` (repeat unit), for which the glass transition temperature is 38.00 °C.

The compound `*CC(*)C(=O)OCCCCCCCCCCOc1cnc(-c2ccc(OC(=O)C3COC(C)(C)O3)cc2)nc1` (repeat unit) came in with a glass transition temperature of 29.00 °C.

In turn, `*CC(*)C(=O)OCCCCCCCCCOC(=O)c1ccc(OC(=O)c2ccc(C#N)cc2)cc1` (repeat unit) came in with a glass transition temperature of 15.00 °C.

As to `*CC(*)C(=O)OCCCCCCCCOC(=O)c1ccc(OC(=O)c2ccc(C#N)cc2)cc1` (repeat unit), the glass transition temperature stood at 15.00 °C.

In the case of `*CC(*)C(=O)OCCCCCCCCn1c2ccccc2c2ccccc21` (repeat unit), the glass transition temperature turned out to be 12.00 °C.

`*CC(*)C(=O)OCCCCCCOc1ccc(-c2ccc(C#N)cc2)cc1` (repeat unit) came in with a glass transition temperature of 45.00 °C.

For `*CC(*)C(=O)OCCCCCCOc1ccc(C(=O)Oc2ccc(OC)cc2)cc1` (repeat unit), the glass transition temperature came out at 29.50 °C.

Regarding `*CC(*)C(=O)OCCCCCCn1c2ccccc2c2ccccc21` (repeat unit), the glass transition temperature was determined as 48.00 °C.

In the case of `*CC(*)C(=O)OCCCCOc1ccc(-c2ccc(C#N)cc2)cc1` (repeat unit), the glass transition temperature was 30.00 °C.

`*CC(*)C(=O)OCCCOC` (repeat unit) gave a glass transition temperature of -66.50 °C.

In turn, `*CC(*)C(=O)OCCCOc1ccc(C(=O)OCCCC(F)(F)C(F)(F)C(F)(F)C(F)(F)C(F)(F)C(F)(F)F)cc1` (repeat unit) had a glass transition temperature of 17.00 °C.

In turn, `*CC(*)C(=O)OCCCSCC` (repeat unit) showed a glass transition temperature of -76.00 °C.

Compound `*CC(*)C(=O)OCCN(CC)c1ccc(/N=N/c2ccc([N+](=O)[O-])cc2)cc1` (repeat unit) returned a glass transition temperature of 102.00 °C.

Compound `*CC(*)C(=O)OCCN(CC)c1ccc(/N=N/c2ccc([N+](=O)[O-])cc2Cl)cc1` (repeat unit) returned a glass transition temperature of 87.00 °C.

`*CC(*)C(=O)OCCOC(F)(F)C(F)F` (repeat unit) yielded a glass transition temperature of -22.00 °C.

As for `*CC(*)C(=O)OCCOCC(F)(F)F` (repeat unit), the glass transition temperature is -38.00 °C.

`*CC(*)C(=O)OCCOc1ccc(C(=O)Oc2ccc(OC)cc2)cc1` (repeat unit): the glass transition temperature was determined as 70.00 °C.

For `*CC(*)C(=O)OCCSCC#N` (repeat unit), the glass transition temperature is -24.00 °C.

With `*CC(*)C(=O)OCCSCCC#N` (repeat unit), the glass transition temperature was -50.00 °C.

On to `*CC(*)C(=O)OCCSCCCC#N` (repeat unit), for which the glass transition temperature was -58.00 °C.

The compound `*CC(*)C(=O)OCc1ccccc1` (repeat unit) had a glass transition temperature of 9.2 °C.

`*CC(*)C(=O)Oc1ccc(-c2ccccc2)cc1` (repeat unit) returned a glass transition temperature of 110.00 °C.

In turn, `*CC(*)C(=O)Oc1ccc(/N=N/c2ccc(OC)cc2)cc1` (repeat unit) came in with a glass transition temperature of 140.00 °C.

In the case of `*CC(*)C(=O)Oc1ccc(C#N)cc1` (repeat unit), the glass transition temperature amounted to 92.00 °C.

Regarding `*CC(*)C(=O)Oc1ccc(C(=O)Oc2ccc(OC(=O)c3ccc(OCCCC)cc3)cc2)cc1` (repeat unit), the glass transition temperature was found to be 47.00 °C.

Compound `*O[Si](C)(C)C#C[Si](C)(C)C#C[Si](C)(C)C#C[Si](C)(C)C#C[Si](*)(C)C` (repeat unit) returned a glass transition temperature of -23.00 °C.

The compound `*Oc1ccc(Oc2ccc(/C(=N/c3ccc(Oc4ccc(/N=C(\c5ccccc5)c5ccc(*)cc5)cc4)cc3)c3ccccc3)cc2)cc1` (repeat unit) registered a glass transition temperature of 162.00 °C.
